# Assay results: patent US11220503B2, “Phthalazine derivatives, preparation method, pharmaceutical composition and usage thereof” (Shanghai SIMR Biotech Co., Ltd., priority 2015, dated 2022)
# Legend:
# α5β3γ2 receptor [1] = molecular target: T1, α5β3γ2 receptor (Homo sapiens, UniProt P18507+P31644); test: Cell level screening: whole cell patch clamp, inverse agonist efficacy; assay type: cell-based; settings: for inhibition at 0.1 µM: HEK293, compound 100 nM, GABA 0.05-0.1 μM, HEK293 α5β3γ2, clamped at −60 mV, (Ipost-Ipre)*100/Ipre, read-out: inverse agonism efficacy(%); for inverse agonism efficacy of the compound/α5IA inverse agonism efficacy: ratio to α5IA, compound 100 nM
# T1 construct: expressed in transfected cells; host or cells: HEK-293 (stably transfected)
# T1 sequence (P31644 32-462): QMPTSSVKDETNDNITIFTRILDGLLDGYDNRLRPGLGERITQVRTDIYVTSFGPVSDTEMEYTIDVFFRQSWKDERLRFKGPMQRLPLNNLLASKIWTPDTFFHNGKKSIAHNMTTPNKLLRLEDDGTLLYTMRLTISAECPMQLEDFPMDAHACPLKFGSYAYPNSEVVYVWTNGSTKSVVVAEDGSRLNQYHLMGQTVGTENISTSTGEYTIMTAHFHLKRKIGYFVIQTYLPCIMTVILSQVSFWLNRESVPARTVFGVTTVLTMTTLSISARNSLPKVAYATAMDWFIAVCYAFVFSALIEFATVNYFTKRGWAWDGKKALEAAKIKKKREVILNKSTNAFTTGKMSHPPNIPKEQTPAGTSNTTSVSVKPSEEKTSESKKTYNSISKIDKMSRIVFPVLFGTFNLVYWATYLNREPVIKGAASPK
# T1 sequence (P28472 26-473 isoform P28472-2 partner limits assumed): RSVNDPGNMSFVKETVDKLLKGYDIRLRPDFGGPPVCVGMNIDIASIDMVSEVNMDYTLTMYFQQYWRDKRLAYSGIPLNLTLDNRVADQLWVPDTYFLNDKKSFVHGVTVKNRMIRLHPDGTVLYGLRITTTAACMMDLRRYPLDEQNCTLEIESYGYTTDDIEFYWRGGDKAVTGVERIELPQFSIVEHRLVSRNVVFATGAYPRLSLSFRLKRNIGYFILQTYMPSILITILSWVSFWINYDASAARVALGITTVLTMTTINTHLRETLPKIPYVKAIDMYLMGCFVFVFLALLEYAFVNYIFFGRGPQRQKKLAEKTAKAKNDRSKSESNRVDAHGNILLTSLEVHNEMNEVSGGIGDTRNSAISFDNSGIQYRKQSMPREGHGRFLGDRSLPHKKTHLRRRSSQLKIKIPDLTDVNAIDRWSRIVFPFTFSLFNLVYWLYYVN
# T1 sequence (P18507 40-475): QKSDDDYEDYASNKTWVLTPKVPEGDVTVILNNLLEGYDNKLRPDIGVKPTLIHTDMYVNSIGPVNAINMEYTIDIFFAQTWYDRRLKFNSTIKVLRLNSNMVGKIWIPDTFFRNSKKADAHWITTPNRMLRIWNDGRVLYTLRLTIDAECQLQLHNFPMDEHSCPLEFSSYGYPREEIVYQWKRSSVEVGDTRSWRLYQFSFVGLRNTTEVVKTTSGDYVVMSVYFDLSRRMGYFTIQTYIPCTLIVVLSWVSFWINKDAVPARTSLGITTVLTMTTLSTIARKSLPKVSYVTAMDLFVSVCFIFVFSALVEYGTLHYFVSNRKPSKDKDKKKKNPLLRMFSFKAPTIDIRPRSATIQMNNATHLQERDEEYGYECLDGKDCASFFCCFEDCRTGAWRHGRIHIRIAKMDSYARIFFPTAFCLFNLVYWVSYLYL
# Procedure: (§1) The inventors used electrophysiological methods to assay the inverse agonist efficacy of the substance to be tested. The detailed procedures are as follows: (1) Different subunits of GABAA receptors were expressed in human embryonic kidney cells 293 (HEK293). The cells were cultured in a culture medium and used as a cell model for screening potential analgesics. The α, β and γ subunits are necessary to form complete functional GABAA receptors. In this example, the inventor has established the following cell model: (a) α5 subunit (protein sequence is GenBank accession number: NP_001158509), β3 subunit (protein sequence is GenBank accession number: NP_068712) and γ2 subunit (protein sequence is GenBank accession number: NP_944494) were expressed in HEK-293 cell lines at the same time, which formed the complete functional GABAA receptors. (2) Cells were stably transfected HEK-293 cells expressing α5β3γ2 receptor, which were labeled by green fluorescent protein (GFP). Cells were grown in 10 cm dishes. The cells were passaged after reaching 80-90% confluence. During passaging, the culture medium was removed and discarded, 3 mL DMEM medium (Gibco™) was added to the dishes, the dishes were shaken slightly, and DMEM was removed and discarded. 3 mL Trypsin (Trypsin-EDTA 0.05%, Gibco™) was added and cells were digested at 37° C. for 3 minutes. Then 3 mL complete growth medium (DMEM+10% horse serum (Gibco™)) was added and the cells at the bottom of the culture dishes were dispersed. The cell suspension were transferred to a 15 mL centrifugal tube (Corning®) and then centrifuged at 200 g for 3 minutes. The supernatant was discarded, 4 mL complete growth medium was added, and the cells were resuspended by gently blowing. The cell suspension was diluted by 1:5 or 1:10 for subculturing. The cell suspension was diluted by 1:12 for electrophysiology experiment, which are added to the 24 well plate (Corning®) which has a glass slide pre-treated with poly-D-lysine. The cells were adhered to the slide before the experiment was conducted. The cells were maintained in culture for no more than 24 hours before use. (3) Compound concentration: for screening, all compounds were diluted to a final concentration of 100 nM. GABA was diluted at the concentration of 0.05-0.1 μM. The compounds were at the concentration of 1 nM, 10 nM, 50 nM, 100 nM and 1000 nM in dose-inverse agonism efficacy (%) experiment. The whole cell patch clamp technique was used in electrophysiology experiments. The extracellular solution (ECS) contained: 150 mM NaCl, 5 mM KCl, 2.5 mM CaCl2, 1 mM MgCl2, 10 mM HEPES and 10 mM glucose (pH 7.4); Patch electrodes were filled with an intracellular solution containing: 140 mM KCl, 5 mM EGTA, 10 mM HEPES (adjusted to pH 7.4 with KOH and to 320-330 mOsm with water). The currents were recorded by an EPC-10 amplifier and the PatchMaster software (HEKA). Patch electrodes with a resistance of 5-6 MΩ were pulled from borosilicate glass (Sutter). The diluted compounds were perfused by OCTAFLOWII system. GFP positive and independently growing cells were selected for recording. During recording, the membrane voltage was clamped at −60 mV. During experiment, the cells were firstly perfused with ECS for 20 seconds. When the baseline reached to a stable state, cells were then perfused with GABA solution. Then the current induced by GABA can be detected. After about 20-40 seconds, the current was stable. ECS was switched to compounds solution and the effects of the compounds were detected. At last, the perfusion solution was switched to ECS. The experiment was finished when the post-baseline returned to the pre-baseline before compounds perfusion. Only the data whose pre-baseline and post-baseline are at almost the same level were used for analysis. GABA was diluted at the concentration of 0.05-0.1 μM in ECS. Then, compounds were diluted at the desired concentration in GABA ECS. (4) Currents were analyzed with the PatchMaster (HEKA) software. […]
# α5β3γ2 receptor [2] = molecular target: T1, α5β3γ2 receptor; test: Supplementary data for cell level screening: new electrophysiology method (I. Lecker et al); assay type: cell-based; settings: for Inverse agonism efficacy(%): new method, CsCl intracellular solution, GABA 0.1˜0.3 CM, other procedures as previous method; for inverse agonism efficacy of the compound/α5IA inverse agonism efficacy: ratio to the α5IA reference run above in the table (r4 or r29)
# Procedure: as §1, with “GABA was diluted at the concentration of 0.05-0.1 μM.” left out, “[…],” for “Patch electrodes were filled with an intracellular solution containing: 140 mM KCl,”, “([…]” for “(adjusted to pH 7.4 with KOH and to 320-330 mOsm with”, “GABA was diluted at the concentration of 0.05-0.1 μM in ECS.” left out, “software. The GABA currents before (Ipre) and after (Ipost) compounds perfusion were recorded respectively. The efficacies of compounds were calculated by the following equation: inverse agonism efficacy=(Ipost-Ipre)*100/Ipre. N indicates experiment numbers.” for “software.”
Compound,inhibition at 0.1 µM (α5β3γ2 receptor [1]) [%],inverse agonism efficacy of the compound/α5IA inverse agonism efficacy (α5β3γ2 receptor [1]),Inverse agonism efficacy(%) (α5β3γ2 receptor [2]),inverse agonism efficacy of the compound/α5IA inverse agonism efficacy (α5β3γ2 receptor [2])
"Cc1cc(-c2nnc3c4ccccc4c(OCc4cc(C(=O)N[C@H](C)CO)on4)nn23)no1 [Compound 58, (R)—N-(1-hydroxypropan-2-yl)-3-(((3-(5-methylisoxazol-3-yl)-[1,2,4]triazolo[3,4-a]phthalazin-6-yl)oxy)methyl)isoxazole-5-carboxamide]",30,1.33,−27,1.554
"Cc1nc(-c2nnc3c4ccccc4c(OCc4ccc(C(=O)N[C@H](C)CO)cn4)nn23)no1 [Compound 57, (R)—N-(1-hydroxypropan-2-yl)-6-(((3-(5-methyl-1,2,4-oxadiazol-3-yl)-[1,2,4]triazolo[3,4-a]phthalazin-6-yl)oxy)methyl)nicotinamide]",38.3,1.6973,−25,1.439
"CC(C)NC(=O)c1ccc(COc2nn3c(-c4cc(CO)on4)nnc3c3ccccc23)nc1 [Compound 38, 6-(((3-(5-(hydroxymethyl)isoxazol-3-yl)-[1,2,4]triazolo[3,4-a]phthalazin-6-yl)oxy)methyl)-N-iso propylnicotinamide]",40,1.774,−52.5,3.023
"O=C(c1ccc(COc2nn3c(-c4cc(CO)on4)nnc3c3ccccc23)nc1)N1CCS(=O)(=O)CC1 [Compound 40, (1,1-dioxidothiomorpholino)(6-(((3-(5-(hydroxymethyl)isoxazol-3-yl)-[1,2,4]triazolo[3,4-a]phthalazin-6-yl)oxy)methyl)pyridin-3-yl)methanone]",29,1.286,−25.5,1.468
"O=C(NCCO)c1ccc(COc2nn3c(-c4cc(CO)on4)nnc3c3ccccc23)nc1 [Compound 39, N-(2-hydroxyethyl)-6-(((3-(5-(hydroxymethyl)isoxazol-3-yl)-[1,2,4]triazolo[3,4-a]phthalazin-6-yl)oxy)methyl)nicotinamide]",49,2.174,−26,1.497
"C[C@H](CO)NC(=O)c1ccc(COc2nn3c(-c4cc(CO)on4)nnc3c3ccccc23)c(C#N)c1 [Compound 55, (R)-3-cyano-4-(((3-(5-(hydroxymethyl)isoxazol-3-yl)-[1,2,4]triazolo[3,4-a]phthalazin-6-yl)oxy)methyl)-N-(1-hydroxypropan-2-yl)benzamide]",33.3,1.4765,−31.6,1.819
"COCCNC(=O)c1ccc(COc2nn3c(-c4cc(CO)on4)nnc3c3ccccc23)nc1 [Compound 43, 6-(((3-(5-(hydroxymethyl)isoxazol-3-yl)-[1,2,4]triazolo[3,4-a]phthalazin-6-yl)oxy)methyl)-N-(2-methoxyethyl)nicotinamide]",27.9,1.239,−35,2.015
"Cc1cc(-c2nnc3c4ccccc4c(OCc4ccc(C(=O)NN5CCOCC5)cn4)nn23)no1 [Compound 01, 6-((3-(5-methylisoxazol-3-yl)-[1,2,4]triazolo[3,4-a]phthalazin-6-yloxy)methyl)-N-morpholinonicotinamide]",58,2.572,−18.67,1.075
